Results on 32 molecules are retold here after patent US7384934B2, “Piperazine substituted aryl benzodiazepines” (Eli Lilly and Company, priority 2002, dated 2008).

In one data set the target is T1, Dopamine D2 receptor (Homo sapiens, UniProt P14416).
T1 construct: purchased Receptor Biology (now owned by NEN) RBHD2CM
The data set is described as follows: Dopamine D2 receptor binding assay ([125I]iodospiperone). The settings on record: relative Ki scale of Table 5; read-out: Relative D2 Receptor Binding Affinity Ki. As for the experimental part: The assay buffers used are 50 mM Tris-HCl pH 7.4, 120 mM NaCl, 5 mM KCl, 5 mM MgCl2, 1 mM EDTA for the Dopamine D2s receptor binding assay. […] The membranes used are from Receptor Biology (now owned by NEN), Cat # RBHD2CM for the D2 receptor.
Compounds are obtained as 10 mM stocks in 100% DMSO. They are diluted to 1 mM in 100% DMSO by adding 180 μL DMSO to 20 μL of stock in 96 well plates using a multidrop. […] This is done using a TECAN robot.
The radioligand is diluted in assay buffer to provide 0.1 nM for the D2 assay. Each vial of membranes is diluted up to 92 mL in assay buffer. The final assay volume is 250 μL consisting of 210 μl of diluted membranes, 20 μL of compound or 10% DMSO for total binding, and 20 μL of diluted radioligand. The compounds are transferred from drug dilution plates into coming 96 well assay plates using a 96 well Multimek pipettor. Radioligand and membranes are added to assay plates using multidrop pipettors. Non-specific binding is determined in wells containing a final concentration of 5 μM haloperidol. The final drug concentration range in half logs is from 10 μM down to 0.1 nM.
After addition of drug, membrane, and ligand, the plates are incubated for 2 hours at room temperature. During this time 96 well Millipore filter plates (MAFBNOB50) are soaked for a least 30 minutes with 200 μL per well of 0.5% polyethyleneimine.
The 0.5% PEI is removed from filterplate wells using a TiterTek MAP aspirator and 200 μL of the incubation mixture is transferred from the incubation plate to the filterplate after mixing. This transfer is done using the 96 tip Mutimek pipettor. After transfer to the filterplate filterplates are extracted and ished twice with 220 μL per well of cold buffer on the MAP aspirator. The peel away bottoms are removed from the filterplates and 60 μL per well of microscint 20 scintillation fluid is added per well using a multidrop. […]

Structures can show the parent of a compound that is named as a salt.

T1 sequence (P14416 1-414 isoform P14416-2): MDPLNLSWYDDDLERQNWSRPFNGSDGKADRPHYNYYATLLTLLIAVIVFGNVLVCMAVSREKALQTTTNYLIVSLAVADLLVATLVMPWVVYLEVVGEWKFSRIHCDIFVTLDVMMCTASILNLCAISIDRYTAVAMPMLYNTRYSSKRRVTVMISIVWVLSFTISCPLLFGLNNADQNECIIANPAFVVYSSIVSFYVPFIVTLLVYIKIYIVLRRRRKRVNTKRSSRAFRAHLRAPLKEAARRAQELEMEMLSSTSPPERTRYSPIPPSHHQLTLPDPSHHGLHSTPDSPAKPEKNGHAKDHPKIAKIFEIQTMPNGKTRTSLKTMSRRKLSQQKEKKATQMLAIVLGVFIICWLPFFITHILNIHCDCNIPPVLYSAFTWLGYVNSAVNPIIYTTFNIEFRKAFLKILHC

The melting point is the temperature, or range, at which the solid turns liquid. On to `Cc1cc2c(s1)Nc1cc(F)ccc1N=C2N1CCN(C)[C@@H](CCO)C1.Cl.Cl`, for which the melting point came out at 230 °C.

The molecule `CCOCC[C@H]1CN(C2=Nc3ccc(F)cc3Nc3sc(C)cc32)CCN1C.Cl` had a melting point of 180 to 182 °C.

In turn, `COCC[C@H]1CN(C2=Nc3cc(F)ccc3Nc3sc(C)cc32)CCN1C.Cl` showed a melting point of 192 to 194 °C.

As for `CCOCC[C@H]1CN(C2=Nc3cc(F)ccc3Nc3sc(C)cc32)CCN1C.Cl.Cl`, the melting point was in the range of 193 to 195 °C.

Regarding `CSCC[C@H]1CN(C2=Nc3ccc(F)cc3Nc3sc(C)cc32)CCN1C.Cl.Cl`, the melting point was found to be 194 °C.

Take `COCC[C@H]1CN(C2=Nc3ccccc3Nc3ccc(C(C)C)cc32)CCN1C` (as salt: hydrochloride): the melting point was 210 °C.

As for `COCC[C@H]1CN(C2=Nc3ccccc3Nc3ccc(Cl)cc32)CCN1C` (as salt: hydrochloride), the melting point came out at 205 °C.

On to `COCC[C@H]1CN(C2=Nc3ccc(F)cc3Nc3sc(C)cc32)CCN1` (as salt: hydrochloride) [Example 248b, (S)-6-Fluoro-10-[3-(2-methoxy-ethyl)-piperazin-1-yl]-2-methyl-4H-3-thia-4,9-diaza-benzo[f]azulene dihydrochloride], for which the melting point was determined as 90 °C.

The molecule `COCC[C@H]1CN(C2=Nc3ccc(F)cc3Nc3sc(C)cc32)CCN1C` (as salt: hydrochloride) [Example 279a, (S)-6-Fluoro 10-[3-(2-methoxy-ethyl)-4-methyl-piperazin-1-yl]-2-methyl-4H-3-thia-4,9-diaza-benzo[f]azulene dihydrochloride] yielded a melting point of 190 to 192 °C.

Consider `CCc1cc2c(s1)Nc1cc(F)ccc1N=C2N1CCN(C)[C@@H](CCOC)C1` (as salt: hydrochloride) [Example 280, (S)-6-Fluoro-10-[3-(2-methoxy-ethyl)-4-methyl-piperazin-1-yl]-2-ethyl-4H-3-thia-4,9-diaza-benzo[f]azulene dihydrochloride], for which the melting point was 186 to 188 °C.

As to `COCC[C@H]1CN(C2=Nc3ccc(Cl)cc3Nc3sc(C)cc32)CCN1C` (as salt: hydrochloride) [Example 291, (S)-6-Chloro-10-[3-(2-methoxy-ethyl)-4-methyl-piperazin-1-yl]-2-methyl-4H-3-thia-4,9-diaza-benzo[f]azulene dihydrochloride], the melting point was in the range of 174 to 176 °C.

Regarding `COCC[C@H]1CN(C2=Nc3cc(Cl)ccc3Nc3sc(C)cc32)CCN1C` (as salt: hydrochloride) [Example 292, (S)-7-Chloro-10-[3-(2-methoxy-ethyl)-4-methyl-piperazin-1-yl]-2-methyl-4H-3-thia-4,9-diaza-benzo[f]azulene dihydrochloride], the melting point lay within 200 to 202 °C.

Molecule `Cc1cc2c(s1)Nc1ccccc1N=C2N1CCN(C)C(COc2ccccc2)C1` (stereo in doubt) [Example 271, (R)-10-(4-Methyl-3-phenoxymethyl-piperazin-1-yl)-2-methyl 4H-3-thia-4,9-diaza-benzo[f]azulene] registered a melting point of 74 to 88 °C.

As to `COCC[C@H]1CN(C2=Nc3ccccc3Nc3ccc(C(C)C)cc32)CCN1` [Example 200, (S)-2-Isopropyl-11-[3-(2-methoxy-ethyl)-piperazin-1-yl]-5H-dibenzo[b,e][1,4]diazepine], the melting point fell in the range of 158 to 160 °C.

`COCC[C@H]1CN(C2=Nc3ccccc3Nc3ccc(C(F)(F)F)cc32)CCN1` [Example 202, (S)-2-Trifluoromethyl-11-[3-(2-methoxy-ethyl)-piperazin-1-yl]-5H-dibenzo[b,e][1,4]diazepine] yielded a melting point of 71 to 82 °C.

A word on the Ki: it is a measure of affinity in units of concentration, obtained from inhibition or displacement. For `COCC[C@H]1CN(C2=Nc3ccccc3Nc3sc(C(F)F)nc32)CCN1C` [Example 336, (S)-10-[3-(2-Methoxy-ethyl)-4-methyl-piperazin-1-yl]-2-difluoromethyl 4H-3-thia-1,4,9-triaza-benzo[f]azulene], the Ki at Dopamine D2 receptor is < 0.01 µM.

As for `COCC[C@H]1CN(C2=Nc3ccccc3Nc3sc(CCC(F)(F)F)nc32)CCN1C` [Example 338, (S)-10-[3-(2-Methoxy-ethyl)-4-methyl-piperazin-1-yl]-2-(3,3,3-trifluoro-propyl)-4H-3-thia-1,4,9-triaza-benzo[f]azulene dihydrochloride], the inhibitory constant (Ki) at Dopamine D2 receptor lay in the range of 0.01 to 0.1 µM.

Take `COCC[C@H]1CN(C2=Nc3ccccc3Nc3sc(C(C)C)nc32)CCN1C1CC1` [Example 339, (S)-10-[4-Cyclopropyl-3-(2-methoxyethyl)piperazin-1-yl]-2-isopropyl-4H-3-thia-1,4,9-triazabenzo[f]azulene dihydrochloride]: the inhibitory constant (Ki) at Dopamine D2 receptor was in the range of 0.01 to 0.1 µM.

In the case of `CCN1CCN(C2=Nc3ccccc3Nc3sc(C(C)C)nc32)C[C@@H]1CCOC` [Example 340, (S)-10-[4-Ethyl-3-(2-methoxyethyl)piperazin-1-yl]-2-isopropyl-4H-3-thia-1,4,9-triazabenzo[f]azulene dihydrochloride], the inhibition constant Ki on Dopamine D2 receptor is 0.01 to 0.1 µM.

As to `CCCN1CCN(C2=Nc3ccccc3Nc3sc(C(C)C)nc32)C[C@@H]1CCOC` [Example 341, (S)-10-[3-(2-Methoxyethyl)-4-propylpiperazin-1-yl]-2-isopropyl-4H-3-thia-1,4,9-triazabenzo[f]azulene dihydrochloride], the inhibition constant (Ki) at Dopamine D2 receptor lay within 0.01 to 0.1 µM.

For the molecule `COCC[C@H]1CN(C2=Nc3ccccc3Nc3sc(C(C)C)nc32)CCN1CCO` [Example 342, (S)-2-[4-(2-Isopropyl-4H-3-thia-1,4,9-triazabenzo[f]azulene-10-yl)-2-(2-methoxyethyl)piperazin-1-yl]ethanol dihydrochloride], the inhibition constant (Ki) at Dopamine D2 receptor lay within 0.01 to 0.1 µM.

In the case of `COCC[C@H]1CN(C2=Nc3ccccc3Nc3sc(C(C)C)nc32)CCN1CCOC` [Example 343, (S)-10-[3,4-Bis(2-methoxyethyl)piperazin-11-yl]-2-isopropyl-4H-3-thia-1,4,9-triazabenzo[f]azulene dihydrochloride], on Dopamine D2 receptor, the Ki lay within 0.1 to 1 µM.

As to `CCN1CCN(C2=Nc3ccccc3Nc3sc(C(F)(F)F)nc32)C[C@@H]1CCOC` [Example 344, (S)-10-[4-Ethyl-3-(2-methoxy-ethyl)-piperazin-1-yl]-2-trifluoromethyl-4H-3-thia-1,4,9-triaza-benzo[f]azulene], on Dopamine D2 receptor, the Ki was < 0.01 µM.

In the case of `CCCN1CCN(C2=Nc3ccccc3Nc3sc(C(F)(F)F)nc32)C[C@@H]1CCOC` [Example 346, (S)-10-[3-(2-Methoxy-ethyl)-4-propyl-piperazin-1-yl]-2-trifluoromethyl-4H-3-thia-1,4,9-triaza-benzo[f]azulene], the inhibition constant Ki on Dopamine D2 receptor was < 0.01 µM.

With `COCC[C@H]1CN(C2=Nc3ccccc3Nc3sc(C(F)(F)F)nc32)CCN1CCCF` [Example 351, (S)-10-[4-(3-Fluoro-propyl)-3-(2-methoxy-ethyl)-piperazin-1-yl]-2-trifluoromethyl-4H-3-thia-1,4,9-triaza-benzo[f]azulene], the inhibition constant Ki on Dopamine D2 receptor fell in the range of 0.01 to 0.1 µM.

With `COCC[C@H]1CN(C2=Nc3ccccc3Nc3sc(C(F)(F)F)nc32)CCN1CCO` [Example 353], the Ki on Dopamine D2 receptor was 0.01 to 0.1 µM.

Turning to `COCC[C@H]1CN(C2=Nc3ccccc3Nc3sc(C(F)(F)F)nc32)CCN1CCCO` [Example 355, (S)-3-[2-(2-Methoxy-ethyl)-4-(2-trifluoromethyl-4H-3-thia-1,4,9-triaza-benzo[f]azulene-10-yl)-piperazin-1-yl]-propan-1-ol], at Dopamine D2 receptor, the Ki was in the range of 0.01 to 0.1 µM.

As for `COCC[C@H]1CN(C2=Nc3ccccc3Nc3sc(C(F)(F)F)nc32)CCN1CCOCCO` [Example 357], the inhibition constant Ki at Dopamine D2 receptor is 0.01 to 0.1 µM.

In the case of `CC(C)c1nc2c(s1)Nc1ccccc1N=C2N1CCN[C@@H](CC(C)(C)O)C1` [Example 367, (S)-1-[4-(2-Isopropyl-4H-3-thia-1,4,9-triazabenzo[f]azulene-10-yl)-piperazin-2-yl]-2-methylpropan-2-ol dihydrochloride], the Ki at Dopamine D2 receptor is < 0.01 µM.

As for `CC(C)c1nc2c(s1)Nc1ccccc1N=C2N1CCN(C)[C@@H](CC(C)(C)O)C1` [Example 368, (S)-1-[4-(2-Isopropyl-4H-3-thia-1,4,9-triazabenzo[f]azulene-10-yl)-1-methylpiperazin-2-yl]-2-methyl-propan-2-ol dihydrochloride], the Ki on Dopamine D2 receptor is < 0.01 µM.

Turning to `Cc1cc2c(s1)Nc1ccccc1N=C2N1CCN[C@@H](CC(C)(C)O)C1` [Example 369, (S)-2-Methyl-1-[4-(2-methyl-4H-3-thia-4,9-diaza-benzo[f]azulen-10-yl)piperazin-2-yl]-propan-2-ol], the Ki at Dopamine D2 receptor lay in the range of 0.1 to 1 µM.

Consider `Cc1cc2c(s1)Nc1ccccc1N=C2N1CCN(C)[C@@H](CC(C)(C)O)C1` [Example 370, (S)-2-Methyl-1-[1-methyl-4-(2-methyl-4H-3-thia-4,9-diazabenzo[f]azulene-10-yl)-piperazin-2-yl]-propan-2-ol dihydrochloride], for which the inhibition constant (Ki) at Dopamine D2 receptor lay within 0.1 to 1 µM.
